Among the data in ChEMBL document CHEMBL3621085, “Tetrazole regioisomers in the development of nitro group-containing antitubercular agents” (Medchemcomm, 2015) are IC50, MIC and Activity values, retold here.

pIC50: −log10 of the molar value. ≈ marks a conversion by molar mass, not a printed value. Calls of active or inactive are those of the source.

One data set has as its target T1, Heme oxygenase 1 (Homo sapiens, UniProt P09601).
T1 sequence (P09601 whole entry): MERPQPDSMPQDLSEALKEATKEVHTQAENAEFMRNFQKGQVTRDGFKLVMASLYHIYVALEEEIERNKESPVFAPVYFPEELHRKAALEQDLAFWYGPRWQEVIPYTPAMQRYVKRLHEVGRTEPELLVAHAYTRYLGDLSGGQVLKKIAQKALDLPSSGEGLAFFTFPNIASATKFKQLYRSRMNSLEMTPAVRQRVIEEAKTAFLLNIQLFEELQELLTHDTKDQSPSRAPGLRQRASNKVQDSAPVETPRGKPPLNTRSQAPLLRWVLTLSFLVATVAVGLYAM
Put plainly: Inhibition of heme oxygenase-1 (unknown origin).

The subject of data set [1] is Mycobacterium tuberculosis. As to the kind of experiment: Antimycobacterial activity against Mycobacterium tuberculosis My 331/88 after 14 days by micromethod. It is filed as functional. To be noted: My 331/88, 336 h.
The test system of data set [2] is Mycobacterium avium. As to the kind of experiment: Antimycobacterial activity against Mycobacterium avium My 330/88 after 14 days by micromethod. It counts as functional. The conditions noted are these: My 330/88, 336 h.
The subject of data set [3] is Mycobacterium tuberculosis. As to the kind of experiment: Antimycobacterial activity against Mycobacterium tuberculosis My 331/88 after 21 days by micromethod. It counts as functional. The conditions noted are these: My 331/88, 504 h.
The subject of data set [4] is Mycobacterium avium. As to the kind of experiment: Antimycobacterial activity against Mycobacterium avium My 330/88 after 21 days by micromethod. It is filed as functional. The conditions noted are these: My 330/88, 504 h.
For data set [5], the system named is Mycobacterium kansasii. As to the kind of experiment: Antimycobacterial activity against Mycobacterium kansasii My 235/80 after 7 days by micromethod. The conditions noted are these: My 235/80, 168 h. It is filed as functional.
Data set [6] relates to Mycobacterium kansasii. Put plainly: Antimycobacterial activity against Mycobacterium kansasii My 235/80 after 14 days by micromethod. It counts as functional. The conditions noted are these: My 235/80, 336 h.
The subject of data set [7] is Mycobacterium kansasii. As to the kind of experiment: Antimycobacterial activity against Mycobacterium kansasii My 235/80 after 21 days by micromethod. It counts as functional. The conditions noted are these: My 235/80, 504 h.
Data set [8] concerns Mycobacterium kansasii. Put plainly: Antimycobacterial activity against Mycobacterium kansasii 6509/96 after 7 days by micromethod. The conditions noted are these: 6509/96, 168 h. It counts as functional.
Data set [9] has as its system Mycobacterium kansasii. As to the kind of experiment: Antimycobacterial activity against Mycobacterium kansasii 6509/96 after 14 days by micromethod. It is filed as functional. The conditions noted are these: 6509/96, 336 h.
For data set [10], the system named is Mycobacterium kansasii. Put plainly: Antimycobacterial activity against Mycobacterium kansasii 6509/96 after 21 days by micromethod. The conditions noted are these: 6509/96, 504 h. It is filed as functional.
In data set [11] the test system is Staphylococcus aureus. As to the kind of experiment: Antibacterial activity against Staphylococcus aureus ATCC 6538 after 24 to 48 hrs by broth micro dilution method. It counts as functional, organism-based.
The subject of data set [12] is Staphylococcus aureus. As to the kind of experiment: Antibacterial activity against methicillin-resistant Staphylococcus aureus H 5996/08 after 24 to 48 hrs by broth micro dilution method. It is filed as functional, organism-based.
Data set [13] has as its system Staphylococcus epidermidis. As to the kind of experiment: Antibacterial activity against Staphylococcus epidermidis H 6966/08 after 24 to 48 hrs by broth micro dilution method. It is filed as functional, organism-based.
The test system of another data set is Enterococcus faecalis. As to the kind of experiment: Antibacterial activity against Enterococcus faecalis J 14365/08 after 24 to 48 hrs by broth micro dilution method. It is filed as functional, organism-based.
The subject of another data set is Escherichia coli. As to the kind of experiment: Antibacterial activity against Escherichia coli ATCC 8739 after 24 to 48 hrs by broth micro dilution method. It counts as functional, organism-based.
In data set [14] the test system is Klebsiella pneumoniae. Put plainly: Antibacterial activity against Klebsiella pneumoniae D 11750/08 after 24 to 48 hrs by broth micro dilution method. It counts as functional, organism-based.
The test system of data set [15] is Klebsiella pneumoniae. As to the kind of experiment: Antibacterial activity against Klebsiella pneumoniae J 14368/08 after 24 to 48 hrs by broth micro dilution method. It counts as functional, organism-based.
Data set [16] has as its system Klebsiella pneumoniae. As to the kind of experiment: Antibacterial activity against ESBL positive Klebsiella pneumoniae J 14368/08 after 24 to 48 hrs by broth micro dilution method. It counts as functional, organism-based.
For another data set, the system named is Pseudomonas aeruginosa. As to the kind of experiment: Antibacterial activity against Pseudomonas aeruginosa ATCC 9027 after 24 to 48 hrs by broth micro dilution method. It is filed as functional, organism-based.
The next data set concerns Candida albicans. Put plainly: Antifungal activity against Candida albicans ATCC 44859 after 24 to 48 hrs by broth micro dilution method. It counts as functional, organism-based.
For another data set, the system named is Candida tropicalis. Put plainly: Antifungal activity against Candida tropicalis 156 after 24 to 48 hrs by broth micro dilution method. It counts as functional, organism-based.
In another data set the test system is Pichia kudriavzevii. Put plainly: Antifungal activity against Candida krusei E28 after 24 to 48 hrs by broth micro dilution method. It counts as functional, organism-based.
Another data set concerns Nakaseomyces glabratus. Put plainly: Antifungal activity against Candida glabrata 20/I after 24 to 48 hrs by broth micro dilution method. It counts as functional, organism-based.
For another data set, the system named is Trichosporon asahii. Put plainly: Antifungal activity against Trichosporon asahii 1188 after 24 to 48 hrs by broth micro dilution method. It is filed as functional, organism-based.
In the next data set the test system is Aspergillus fumigatus. As to the kind of experiment: Antifungal activity against Aspergillus fumigatus 2318 after 24 to 48 hrs by broth micro dilution method. It is filed as functional, organism-based.
In the next data set the test system is Lichtheimia corymbifera. As to the kind of experiment: Antifungal activity against Absidia corymbifera 272 after 24 to 48 hrs by broth micro dilution method. It counts as functional, organism-based.
In data set [17] the test system is Trichophyton mentagrophytes. As to the kind of experiment: Antifungal activity against Trichophyton mentagrophytes 445 after 72 to 120 hrs by broth micro dilution method. It counts as functional, organism-based.
The nature of data set [18]: Cytotoxicity against CHOK1 cells assessed as viability after 24 hrs by MTT assay. It is filed as cell-based. To be noted: Cricetulus griseus, CHO-K1, 24 h. On the technique in general: Tetrazolium assays rely on reduction of a dye to a coloured formazan, in cell work by metabolically active cells.
The test system of data set [19] is Salmonella typhimurium. As to the kind of experiment: Mutagenic activity in Salmonella typhimurium TA98 assessed as induction of reverse mutation at 50 uM. To be noted: salmonella enterica subsp. enterica serovar typhimurium. It counts as toxicity, organism-based.
The test system of data set [20] is Salmonella typhimurium. Put plainly: Mutagenic activity in Salmonella typhimurium TA100 assessed as induction of reverse mutation at 50 uM. It is filed as toxicity, organism-based. The conditions noted are these: salmonella enterica subsp. enterica serovar typhimurium.

For orientation: pIC50 means the negative decadic logarithm of the IC50, by convention in mol/L. As a reminder, the MIC is the smallest concentration in the dilution series that meets the test's criterion for growth inhibition. Higher therefore signals weaker potency.

For `O=C(CCc1ccccc1)Cn1cnnn1`, on Heme oxygenase 1, the pIC50 is 5.59.

For the compound `O=[N+]([O-])c1cc(C[Se]c2nnnn2Cc2ccccc2)cc([N+](=O)[O-])c1`, the MIC in data set [1] worked out at 1 µM (≈ 0.419 µg/mL); against Mycobacterium avium [2], 32 µM (≈ 13.4 µg/mL); in [3], 2 µM (≈ 0.839 µg/mL); against Mycobacterium avium [4] it was 32 µM (≈ 13.4 µg/mL); in the data set on Mycobacterium kansasii [5], 2 µM (≈ 0.839 µg/mL); against Mycobacterium kansasii [6] it was 4 µM (≈ 1.68 µg/mL). In addition, the MIC came out at 4 µM (≈ 1.68 µg/mL) against Mycobacterium kansasii [7], 4 µM (≈ 1.68 µg/mL) in the data set with Mycobacterium kansasii [8], 8 µM (≈ 3.35 µg/mL) against Mycobacterium kansasii [9] and 8 µM (≈ 3.35 µg/mL) against Mycobacterium kansasii [10]. The result (in the data set with Staphylococcus aureus [11]; with Staphylococcus aureus [12]; in data set [13]; in the data set on Enterococcus faecalis; in the data set on Escherichia coli; in the data set with Klebsiella pneumoniae [14]) was inactive. For the same compound, the outcome in the data set on Klebsiella pneumoniae [15], in the data set with Klebsiella pneumoniae [16], in the data set with Pseudomonas aeruginosa, in the data set with Candida albicans, in the data set on Candida tropicalis and with Pichia kudriavzevii was inactive. The result (in the data set with Nakaseomyces glabratus; in the data set on Trichosporon asahii; with Aspergillus fumigatus; in the data set on Lichtheimia corymbifera; in data set [17]) was inactive. Besides, the pIC50 in data set [18] was 4.15. Moreover, the Activity result with Salmonella typhimurium [19] and in the data set on Salmonella typhimurium [20] was “Toxic” throughout.

Regarding `O=[N+]([O-])c1cc(CSc2nnn(Cc3ccccc3)n2)cc([N+](=O)[O-])c1`, the MIC came out at 1 µM (≈ 0.372 µg/mL) in data set [1]; 62 µM (≈ 23.1 µg/mL) against Mycobacterium avium [2]; 1 µM (≈ 0.372 µg/mL) in [3]; 125 µM (≈ 46.5 µg/mL) in the data set on Mycobacterium avium [4]; 8 µM (≈ 2.98 µg/mL) with Mycobacterium kansasii [5]; 16 µM (≈ 5.96 µg/mL) against Mycobacterium kansasii [6]. Moreover, the MIC with Mycobacterium kansasii [7] was 16 µM (≈ 5.96 µg/mL); with Mycobacterium kansasii [8], 4 µM (≈ 1.49 µg/mL); in the data set with Mycobacterium kansasii [9], 4 µM (≈ 1.49 µg/mL); against Mycobacterium kansasii [10], 8 µM (≈ 2.98 µg/mL). Besides, the result (in the data set with Staphylococcus aureus [11]; with Staphylococcus aureus [12]; in data set [13]; with Enterococcus faecalis; with Escherichia coli; in the data set on Klebsiella pneumoniae [14]) was inactive. For the same compound, the outcome in the data set on Klebsiella pneumoniae [15], in the data set on Klebsiella pneumoniae [16], in the data set with Pseudomonas aeruginosa, with Candida albicans, with Candida tropicalis and in the data set with Pichia kudriavzevii was inactive. For the same compound, the result (in the data set on Nakaseomyces glabratus; in the data set on Trichosporon asahii; with Aspergillus fumigatus; in the data set on Lichtheimia corymbifera; in [17]) was inactive. Also, the pIC50 in [18] is 4.39. Further, the Activity entry in the data set with Salmonella typhimurium [19] and with Salmonella typhimurium [20] was “Toxic” throughout.
